Results as given in PMC6934184, “Selective DNA-PKcs inhibition extends the therapeutic index of localized radiotherapy and chemotherapy” (The Journal of Clinical Investigation, 2019).

Biological target: T1, MARK4 (Homo sapiens, UniProt Q96L34)
T1 construct: purchased Thermo Fisher Scientific (Life Technologies) SelectScreen
Test: SelectScreen Z'LYTE
Assay type: biochemical
Method in brief: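 SelectScreen broad panel; activity (Z'LYTE, Adapta) plus binding formats. ATP: Km app for CSF1R Z'LYTE; 10 for CAMK1 Adapta. Readout = % per kinase.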

T1 sequence (Q96L34 whole entry): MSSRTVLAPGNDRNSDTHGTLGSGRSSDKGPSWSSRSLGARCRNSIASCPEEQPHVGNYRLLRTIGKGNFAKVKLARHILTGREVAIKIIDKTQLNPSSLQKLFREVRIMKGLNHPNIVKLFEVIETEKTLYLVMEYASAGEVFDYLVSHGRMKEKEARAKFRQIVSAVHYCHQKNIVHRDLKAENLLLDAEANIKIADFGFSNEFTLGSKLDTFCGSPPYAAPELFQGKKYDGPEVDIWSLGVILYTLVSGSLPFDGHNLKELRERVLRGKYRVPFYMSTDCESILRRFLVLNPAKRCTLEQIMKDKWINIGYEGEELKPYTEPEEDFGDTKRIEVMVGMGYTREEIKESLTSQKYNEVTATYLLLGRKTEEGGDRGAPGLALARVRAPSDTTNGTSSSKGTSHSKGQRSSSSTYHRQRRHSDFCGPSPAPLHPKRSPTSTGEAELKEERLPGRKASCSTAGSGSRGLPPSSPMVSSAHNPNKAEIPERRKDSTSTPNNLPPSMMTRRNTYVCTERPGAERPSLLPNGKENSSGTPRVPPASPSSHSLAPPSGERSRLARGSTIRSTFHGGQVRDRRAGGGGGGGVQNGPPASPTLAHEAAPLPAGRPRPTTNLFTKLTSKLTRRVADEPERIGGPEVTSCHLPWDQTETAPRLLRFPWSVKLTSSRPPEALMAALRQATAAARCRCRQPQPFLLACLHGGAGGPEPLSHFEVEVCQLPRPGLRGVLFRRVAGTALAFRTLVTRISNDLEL

CN(C(=O)CN1CCOCC1)c1ccc2sc3c(-c4cccc5c(=O)cc(N6CC7CCC(C6)O7)oc45)cccc3c2c1 [NU5455] showed an inhibition at 1 µM of -2%.
